In US8076061B2, “Method and composition for cancer diagnosis and treatment” (Ascentgene, Inc., priority 2007, dated 2011):

How the values were obtained:
[1] = test system: PC4-dependent transcription (template pG5HM); assay: In vitro transcription assay reconstituted with purified general transcription factors; format: biochemical
Source text: FIGS. 3A, 3B and 3C show the functional analyses of PC4 mutations in different assays.
In vitro transcription assay was reconstituted with purified general transcription factors, including TFIIA, TFIIB, TFIID, TFIIF, TFIIH and RNA polymerase II, either purified from HeLa cells or from a recombinant source. This system can be activated in a PC4 and activator-dependent manner. In addition to the transcription factors, the system also contained one activator-responsive template, a basic template (activator-independent), and ^32P-CTP. After incubation at 30° C. for 1 hr, the newly synthesized RNAs were extracted and analyzed on a denatured polyacrylamide gel and visualized by autoradiography.

PC4 = PC4 (Homo sapiens, UniProt P53999); assay: Interaction of AH peptide with PC4; format: binding; conditions: 15 amino acid peptide
[2] = test system: 64 bp dsDNA probe from the adeno major late promoter region; assay: Electrophoresis mobility shift assay (EMSA), DNA binding activity of PC4 proteins; conditions: purified recombinant PC4 mutant vs wild type, FIG. 3B
Protocol: EMSA was used to determine the ds-DNA binding activity of PC4 protein and was performed in a 20 ul of reaction containing […] of purified PC4 protein and ^32P-labeled 64 bp dsDNA probe from the adeno major late promoter region. After incubated at 4° C. for 1 hr, the reaction mixture was analyzed on an 8% polyacrylamide gel. The mobilized PC4-dsDNA complex was visualized using autoradiography.

ssDNA = assay: Protein array assay (UPA), protein-DNA interaction; format: binding; conditions: FIG. 4F
Protocol: (§1) The protein array assay is based on the “Universal Protein Array” method, also called UPA [Ge, H. (2000) UPA, a universal protein array system for quantitative detection of protein-protein, protein-DNA, protein-RNA and protein-ligand interactions. Nucleic Acids Res. 28, e3]. Purified proteins were validated, normalized and arrayed on a nitrocellulose sheet. Each spot was arrayed in 1 mm diameter containing 10-100 ng of protein depending on size. Targeted proteins that interacted with the PC4 proteins on the array were detected by specific antibodies such as antibodies against transcription factor TFIIA, Gal4, or Sp1. For protein-DNA interaction, probe DNA was labeled with ^32P-dCTP and the bound DNA was monitored by autoradiography.

[3] = target: T1, transcription factor TFIIA (Homo sapiens, UniProt P52655+P52657); assay: Protein array assay (UPA), interaction with TFIIA; format: binding; conditions: FIG. 4C
T1 sequence (P52655 1-376): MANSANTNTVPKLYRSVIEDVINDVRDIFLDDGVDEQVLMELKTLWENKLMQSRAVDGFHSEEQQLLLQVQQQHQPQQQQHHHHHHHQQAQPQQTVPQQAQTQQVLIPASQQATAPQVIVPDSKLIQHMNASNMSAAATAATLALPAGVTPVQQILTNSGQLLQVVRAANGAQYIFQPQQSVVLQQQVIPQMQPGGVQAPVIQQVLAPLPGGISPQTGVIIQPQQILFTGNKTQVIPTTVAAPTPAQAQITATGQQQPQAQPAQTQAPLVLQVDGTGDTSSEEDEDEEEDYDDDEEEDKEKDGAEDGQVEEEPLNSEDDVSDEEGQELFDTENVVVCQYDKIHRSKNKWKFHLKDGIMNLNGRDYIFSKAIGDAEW
T1 sequence (P52657 1-109): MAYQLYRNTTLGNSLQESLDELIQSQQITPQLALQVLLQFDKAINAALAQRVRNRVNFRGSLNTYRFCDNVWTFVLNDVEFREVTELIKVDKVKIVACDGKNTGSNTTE
Protocol: as §1

[4] = test system: transcription factor Sp1 (Gal4-Sp1 fusion protein); assay: Protein array assay (UPA), interaction with Sp1; format: binding; conditions: FIG. 4E
Protocol: as §1

interaction with PC4 (mimics an activation domain) (PC4) | PC4's DNA binding activity [2] | ssDNA binding activity of PC4 (ssDNA) | interaction of PC4 with TFIIA [3] | Substance | transcription activation, PC4-dependent ([1]; AH fused with a Gal4 DNA binding domain) | PC4 transcription activity ([1]; purified recombinant PC4 mutant vs wild type, FIG. 3C) | interaction of PC4 with Sp1 [4]
interacting strongly |  |  |  | ELQEL′QELQALLQQQ (ELQELQELQALLQQQ; AH15) | dramatic transcription activation |  | 
 | abolishes | critical for the ssDNA binding activity | enhances | F77P: recombinant human PC4 protein with single amino acid change F77P |  | abolishes | enhances
